Experimental data taken from ChEMBL document CHEMBL1201862, “PubChem BioAssay data set” (2004).
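Values below derive from 48-hour exposures of cells grown in 96-well plates, with endpoints linearly interpolated between the two concentrations bracketing the appropriate inhibition level. At the GI50, growth is halved.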 Activity calls are given as the source filed them. No stated cut-off is given here; in the data, active = GI50 up to about 1.1 µM and inactive = higher.

Key:
Test in all cases: NCI tumour cell line growth inhibition, 48 h
HOP-92 = system: HOP-92
EKVX = system: EKVX
NCI-H522 = system: NCI-H522
MDA-N = system: MDA-N
MDA-MB-231 = system: MDA-MB-231
UACC-62 = system: UACC-62
SK-OV-3 = system: SK-OV-3
A549 = system: A549
SNB-75 = system: SNB-75
SR = system: SR
SK-MEL-28 = system: SK-MEL-28
K562 = system: K562
HT-29 = system: HT-29
T47D = system: T47D
ACHN = system: ACHN
KM12 = system: KM12
COLO 205 = system: COLO 205
SF-268 = system: SF-268
BT-549 = system: BT-549

Measured: GI50

C[C@@H]1O[C@@H]2OCC[C@@H]2C2=C1C(=O)c1ccccc1C2=O
inactive: HOP-92 4.38 µM | EKVX 19.8 µM | NCI-H522 6.65 µM | MDA-N 1.85 µM | MDA-MB-231 33.7 µM | UACC-62 4.35 µM | SK-OV-3 28.4 µM | A549 19 µM | SNB-75 9.95 µM | SR 4.24 µM | SK-MEL-28 13.9 µM | K562 10.1 µM | HT-29 40 µM | T47D 5.12 µM | ACHN 12.2 µM | KM12 15.2 µM | COLO 205 23.9 µM | SF-268 4.97 µM

O=C(/C=C/c1ccc(Cl)c(Cl)c1)Oc1ccc(/C=C2\CCCCC2=O)cc1
inactive: HOP-92 > 100 µM | EKVX > 100 µM | NCI-H522 91.8 µM | MDA-N > 100 µM | MDA-MB-231 > 100 µM | UACC-62 > 100 µM | A549 > 100 µM | SNB-75 > 100 µM | SR > 100 µM | SK-MEL-28 > 100 µM | HT-29 > 100 µM | T47D > 100 µM | ACHN > 100 µM | KM12 > 100 µM | COLO 205 > 100 µM | SF-268 39 µM

C=C(C)C(=O)O[C@H]1CC2(CO)O[C@@H]2CC/C(COC(C)=O)=C/C2OC(=O)C(=C)[C@@H]21 (stereo partly specified)
inactive: HOP-92 26.4 µM | EKVX > 100 µM | NCI-H522 16.4 µM | MDA-MB-231 61.4 µM | UACC-62 39.5 µM | SK-OV-3 > 100 µM | A549 > 100 µM | SNB-75 59.7 µM | SR 16.9 µM | SK-MEL-28 23.6 µM | K562 23.9 µM | HT-29 34.8 µM | T47D 29.5 µM | ACHN 26.1 µM | KM12 > 85.3 µM | COLO 205 18.2 µM | SF-268 > 100 µM | BT-549 21.8 µM

COC(=O)[C@H](Cc1ccccc1)NC(=O)N1CCN(C(=O)N[C@@H](Cc2ccccc2)C(=O)OC)CCN(C(=O)N[C@@H](Cc2ccccc2)C(=O)OC)CC1
inactive: HOP-92 > 100 µM | EKVX > 100 µM | NCI-H522 > 100 µM | MDA-N > 100 µM | UACC-62 > 100 µM | SK-OV-3 > 100 µM | A549 > 100 µM | SNB-75 > 100 µM | SK-MEL-28 > 100 µM | K562 > 100 µM | HT-29 > 100 µM | T47D > 100 µM | ACHN > 100 µM | KM12 > 100 µM | COLO 205 > 100 µM | SF-268 > 100 µM | BT-549 > 100 µM

COc1ccc2c(c1)CCN=C2Cc1ccccc1CCCl
inactive: HOP-92 23.7 µM | EKVX 37.2 µM | NCI-H522 19.6 µM | MDA-MB-231 15.4 µM | UACC-62 22.5 µM | SK-OV-3 39.3 µM | A549 28.6 µM | SNB-75 31.3 µM | SR 51.2 µM | SK-MEL-28 32.6 µM | K562 18 µM | HT-29 12.2 µM | T47D 17.7 µM | ACHN 30.1 µM | KM12 23.1 µM | COLO 205 17.5 µM | SF-268 21.8 µM | BT-549 44.2 µM

O=C(NO)c1ccc(C(=O)NO)cc1
inactive: HOP-92 82.2 µM | EKVX > 100 µM | MDA-N > 100 µM | MDA-MB-231 43.6 µM | UACC-62 > 100 µM | SK-OV-3 12 µM | A549 > 100 µM | SNB-75 8.2 µM | SR 27.4 µM | SK-MEL-28 > 100 µM | K562 38.4 µM | HT-29 87.9 µM | T47D 30.3 µM | ACHN > 100 µM | KM12 79.8 µM | COLO 205 49.7 µM | SF-268 58.3 µM

CC1=[N+]([O-])C(C)(C)N(O)C1(C)C
inactive: HOP-92 > 100 µM | EKVX > 100 µM | NCI-H522 > 100 µM | MDA-N > 100 µM | MDA-MB-231 > 100 µM | UACC-62 > 100 µM | SK-OV-3 > 100 µM | A549 > 100 µM | SNB-75 > 100 µM | SR > 100 µM | SK-MEL-28 > 100 µM | K562 > 100 µM | HT-29 > 100 µM | T47D > 100 µM | ACHN > 100 µM | KM12 > 100 µM | COLO 205 > 100 µM | SF-268 > 100 µM

COC1(OC)N=C(N)C2(C#N)C(C)=C3NCN(C)N=C3C12C#N (stereo unspecified)
inactive: HOP-92 > 100 µM | EKVX > 100 µM | NCI-H522 > 100 µM | MDA-N > 100 µM | MDA-MB-231 > 100 µM | UACC-62 > 100 µM | SK-OV-3 > 100 µM | A549 > 100 µM | SNB-75 > 100 µM | SK-MEL-28 > 100 µM | K562 > 100 µM | HT-29 > 100 µM | T47D > 100 µM | ACHN > 100 µM | KM12 > 100 µM | COLO 205 > 100 µM | SF-268 > 100 µM

COC(=O)/C=C1/SC(/C(=C(/[O-])OC)[n+]2ccc3ccccc3c2)=NC1=O
inactive: EKVX > 100 µM | NCI-H522 > 100 µM | MDA-N > 100 µM | MDA-MB-231 21.9 µM | UACC-62 > 100 µM | SK-OV-3 > 100 µM | A549 > 100 µM | SNB-75 90.2 µM | SR 63 µM | SK-MEL-28 > 100 µM | K562 > 100 µM | HT-29 > 100 µM | T47D > 100 µM | ACHN > 100 µM | KM12 > 100 µM | COLO 205 > 100 µM | SF-268 > 100 µM

NC1=NNC2(C(N)=N1)c1ccccc1-c1ccccc12
inactive: HOP-92 > 10 µM | EKVX > 10 µM | NCI-H522 > 10 µM | MDA-MB-231 > 10 µM | UACC-62 > 10 µM | SK-OV-3 > 10 µM | A549 > 10 µM | SNB-75 > 10 µM | SR > 10 µM | SK-MEL-28 > 10 µM | HT-29 > 10 µM | T47D > 10 µM | ACHN > 10 µM | KM12 > 10 µM | COLO 205 > 10 µM | SF-268 > 10 µM | BT-549 > 10 µM

Oc1ccc2c(c1)-c1c(c3cc(O)ccc3n1CCN1CCOCC1)CC2
inactive: HOP-92 26.1 µM | EKVX 30.8 µM | NCI-H522 17.4 µM | MDA-MB-231 17.6 µM | UACC-62 16.7 µM | SK-OV-3 23.9 µM | A549 28.4 µM | SNB-75 19.5 µM | SR 18.4 µM | SK-MEL-28 18.5 µM | K562 20 µM | HT-29 26 µM | T47D 18.8 µM | ACHN 30.5 µM | KM12 32.7 µM | COLO 205 17.4 µM | SF-268 44.8 µM | BT-549 14.5 µM

COc1ccc2cc(C(=O)NCCc3ccccc3)ccc2c1OC
inactive: HOP-92 49.1 µM | EKVX > 100 µM | MDA-N > 100 µM | MDA-MB-231 33.6 µM | UACC-62 > 100 µM | SK-OV-3 65.3 µM | A549 > 100 µM | SR 49.9 µM | SK-MEL-28 > 100 µM | K562 83.6 µM | HT-29 67.6 µM | T47D 26.5 µM | ACHN > 100 µM | COLO 205 > 100 µM | SF-268 54.3 µM
